Test results as given in the NIST ThermoML archive (doi:10.1016/j.fluid.2014.04.038).
Several values for one entry are separate records, joined by “and”; a condition that tells them apart may be missing. Equal entries are not always repeated.

Conditions: Hot wire method

CCF [fluoroethane]
Gas
Conditions	thermal conductivity [W/m/K]
327.04 K, 1095.3 kPa	0.01963
327.1 K, 807.3 kPa	0.01901
327.1 K, 968 kPa	0.01947
327.18 K, 798.3 kPa	0.01958
327.49 K, 616.5 kPa	0.01891
327.67 K, 420.8 kPa	0.01907
327.88 K, 999.2 kPa	0.01944
328.12 K, 807.3 kPa	0.01964
328.26 K, 616.5 kPa	0.0193
328.79 K, 420.8 kPa	0.01938
332.17 K, 969.9 kPa	0.02009
332.31 K, 756.8 kPa	0.01954
332.66 K, 396.8 kPa	0.01951
332.66 K, 969.9 kPa	0.02013
333.3 K, 756.8 kPa	0.01971
333.74 K, 396.8 kPa	0.01972
336.09 K, 1491 kPa	0.02082
336.27 K, 1198.3 kPa	0.02033
336.49 K, 1758.2 kPa	0.02175
336.67 K, 1491 kPa	0.02077
336.83 K, 865.8 kPa	0.01986
336.9 K, 1198.3 kPa	0.02068
336.91 K, 706.3 kPa	0.01983
337.06 K, 1758.2 kPa	0.02164
337.27 K, 1491 kPa	0.0208
337.33 K, 480.3 kPa	0.02
337.56 K, 1198.3 kPa	0.02055
337.61 K, 206.2 kPa	0.02003
337.81 K, 865.8 kPa	0.01999
337.89 K, 706.3 kPa	0.01991
338.08 K, 480.3 kPa	0.01991
338.76 K, 206.2 kPa	0.02026
345.5 K, 2260 kPa	0.0234
345.62 K, 2008 kPa	0.02287
345.73 K, 1253.4 kPa	0.02123
345.76 K, 1802.5 kPa	0.02255
345.91 K, 1001.2 kPa	0.0213
346.04 K, 748.6 kPa	0.02153
346.17 K, 2008 kPa	0.02305
346.18 K, 454.4 kPa	0.02091
346.2 K, 1802.5 kPa	0.02205
346.23 K, 2260 kPa	0.02334
346.43 K, 1560.1 kPa	0.02199
346.52 K, 1253.4 kPa	0.02134
346.59 K, 250.1 kPa	0.02108
346.68 K, 1001.2 kPa	0.02108
346.83 K, 454.4 kPa	0.02085
346.87 K, 2260 kPa	0.02339
346.91 K, 748.6 kPa	0.02154
347.13 K, 2008 kPa	0.02317
347.22 K, 1802.5 kPa	0.02234
347.3 K, 250.1 kPa	0.02135
347.67 K, 1560.1 kPa	0.02199
347.86 K, 1253.4 kPa	0.02137
348.08 K, 1001.2 kPa	0.02122
348.34 K, 748.6 kPa	0.02136
348.4 K, 250.1 kPa	0.0215
348.67 K, 454.4 kPa	0.02127
355.01 K, 2934.5 kPa	0.02654
355.38 K, 2586.5 kPa	0.02498

Liquid
Conditions	thermal conductivity
334.87 K	0.09073 W/m/K and 0.09116 W/m/K and 0.09121 W/m/K
335.25 K	0.09091 W/m/K and 0.09082 W/m/K
335.26 K	0.09123 W/m/K
335.66 K	0.09055 W/m/K and 0.09054 W/m/K
335.67 K	0.09089 W/m/K
344.8 K	0.08543 W/m/K
344.82 K	0.08529 W/m/K and 0.08532 W/m/K
345.2 K	0.08496 W/m/K
345.21 K	0.08506 W/m/K and 0.08519 W/m/K
345.68 K	0.08484 W/m/K
345.7 K	0.08488 W/m/K
345.72 K	0.08489 W/m/K
354.61 K	0.081 W/m/K
354.62 K	0.08121 W/m/K and 0.08127 W/m/K
354.87 K	0.08113 W/m/K
354.88 K	0.08093 W/m/K and 0.08129 W/m/K
354.89 K	0.08101 W/m/K
354.97 K	0.08115 W/m/K
354.99 K	0.08085 W/m/K
355 K	0.08097 W/m/K
355.29 K	0.0807 W/m/K and 0.08094 W/m/K
355.3 K	0.08092 W/m/K
355.37 K	0.08104 W/m/K
355.38 K	0.08142 W/m/K and 0.08125 W/m/K
